Assay results from patent US9513294B2, “Megastokes amino-triazolyl-BODIPY compounds and applications to live neuron staining and human serum albumin FA1 drug site probing” (National University of Singapore, priority 2012, dated 2016).
Each block holds one compound with its values, some of them ahead of it.

Columns and labels:
[1] = Absorbance and fluorescence emission spectra (SpectraMax M2); assay type: physicochemical; settings: for λmax Abs. (nm) / λmax Em. (nm): MKAC compound library; for λmax Abs. (nm) / λmax Absorp. (nm): absorbance maximum; for λmax Em. (nm) / λmax Emission (nm): fluorescence emission maximum; for λmax Absorp. (nm) / λmax Emission (nm): MKCA compound library
Procedure: BDC-8 (Blue): absorbance λmax=473 nm, emission λmax=585 nm; MK101-8 (Green): absorbance λmax=474 nm, emission λmax=563 nm; MKHA374-48 (Yellow): absorbance λmax=468 nm, λem=557 nm. The corresponding spectra of a reported BODIPY (BD-27; Red) are also included for comparison: absorbance λmax=551 nm, emission λmax=568 nm. The structures of BDC-8, MK101-8, MKHA374-48 and BD-27 are also depicted.
(§1) ^1H-NMR, ^19F-NMR and ^13C-NMR spectra were recorded on Bruker ACF300 (300 MHz), DPX300 (300 MHz) and AMX500 (500 MHz) spectrometers. High resolution mass spectra (ESI) were obtained on a Finnigan/MAT 95XL-T spectrometer. Spectroscopic and quantum yield data were measured on a SpectraMax M2 spectrophotometer (Molecular Devices). Data analysis was performed using GraphPrism 5.0. Analytical characterization was performed on a HPLC-MS (Agilent-1200 series) with a DAD detector and a single quadrupole mass spectrometer (6130 series) with an ESI probe. Analytical HPLC method: eluents, A: H2O (0.1% HCOOH), B: CH3CN (0.1% HCOOH), gradient 5% B to 95% B (10 min). Reverse-phase Phenomenex C18 Luna column (4.6×50 mm^2, 3.5 […]), flow rate: 1 mL/min.

[2] = Quantum yield measurements versus Acridine Yellow in EtOH; assay type: physicochemical; settings: for φ (%): quantum yield; for φ (quantum yield): excitation 460 nm
Procedure: as §1
Quantum yields were calculated by measuring the integrated emission area of the fluorescent spectra and comparing to the area measured for Acridine Yellow in EtOH when excited at 460 nm (Φfluorescence^AcridineYellow=0.47). Quantum yields for the amino-triazolyl-BODIPYs were calculated using the equation below, where F represents the area of fluorescent emission, η is the refractive index of the solvent, and Abs is absorbance at the excitation wavelength selected for standards and samples. Emission was integrated between 510 and 700 nm.

- λmax Abs. (nm) [1]: 465 nm
- λmax Em. (nm) [1]: 563 nm
- φ (%) ([2]; MKAC compound library): 21.14%
Structure (SMILES): CC(=O)Nc1ccc(C2=C3C=CC(NCc4ccccc4C)=[N+]3[B-](F)(F)n3c2ccc3-n2cc(CC3CCCCC3)nn2)cc1 [MKAC101-8]

- λmax Absorp. ([1]; MK library, Table 5): 474 nm
- λmax Emission ([1]; MK library, Table 5): 563 nm
- φ (quantum yield) ([2]; MK library, Table 5): 2.28%
Structure (SMILES): CCCCCC(O)c1cn(-c2ccc3n2[B-](F)(F)[N+]2=C(NCc4ccccc4OCC)C=CC2=C3c2ccc(N)cc2)nn1 (centres unmarked) [MK103-69]

- λmax Absorp. ([1]; BDCAC library, Table 3): 465 nm
- λmax Emission ([1]; BDCAC library, Table 3): 567 nm
- φ (quantum yield) ([2]; BDCAC library, Table 3): 1.3%
Structure (SMILES): CC(=O)Nc1ccc(C2=C3C=CC(N4CCCCC4)=[N+]3[B-](F)(F)n3c2ccc3-n2cc(-c3ccc(F)cc3F)nn2)cc1 [BDCAC-26]

- λmax Absorp. ([1]; MK library, Table 5): 473 nm
- λmax Emission ([1]; MK library, Table 5): 563 nm
- φ (quantum yield) ([2]; MK library, Table 5): 0.52%
Structure (SMILES): COc1ccc(OC)c(CNC2=[N+]3C(=C(c4ccc(N)cc4)c4ccc(-n5cc(CN(C)Cc6ccccc6)nn5)n4[B-]3(F)F)C=C2)c1 [MK181-18]

- λmax Absorp. (nm) [1]: 467 nm
- λmax Emission (nm) [1]: 563 nm
- φ (%) ([2]; MKCA compound library): 41.81%
Structure (SMILES): CCCC(C)c1cn(-c2ccc3n2[B-](F)(F)[N+]2=C(NCc4cc(F)cc(F)c4)C=CC2=C3c2ccc(NC(=O)CCl)cc2)nn1 (centres unmarked) [MKCA412-3]

- λmax Absorp. ([1]; BDCCA library, Table 4): 464 nm
- λmax Emission ([1]; BDCCA library, Table 4): 568 nm
- φ (quantum yield) ([2]; BDCCA library, Table 4): 1.2%
Structure (SMILES): CCc1ccc(-c2cn(-c3ccc4n3[B-](F)(F)[N+]3=C(N5CCCCC5)C=CC3=C4c3ccc(NC(=O)CCl)cc3)nn2)cc1 [BDCCA-46]

- λmax Absorp. (nm) [1]: 468 nm
- λmax Emission (nm) [1]: 563 nm
- φ (%) ([2]; MKCA compound library): 41.21%
Structure (SMILES): O=C(CCl)Nc1ccc(C2=C3C=CC(NCc4cc(F)cc(F)c4)=[N+]3[B-](F)(F)n3c2ccc3-n2cc(C3CCCC3)nn2)cc1 [MKCA412-5]

- λmax Absorp. ([1]; BDCCA library, Table 4): 468 nm
- λmax Emission ([1]; BDCCA library, Table 4): 588 nm
- φ (quantum yield) ([2]; BDCCA library, Table 4): 0.9%
Structure (SMILES): O=C(CCl)Nc1ccc(C2=C3C=CC(N4CCCCC4)=[N+]3[B-](F)(F)n3c2ccc3-n2cc(C3CCCC3)nn2)cc1 [BDCCA-5]

- λmax Abs. (nm) [1]: 467 nm
- λmax Em. (nm) [1]: 560 nm
- φ (%) ([2]; MKAC compound library): 18.26%
Structure (SMILES): CC(=O)Nc1ccc(C2=C3C=CC(NCc4cc(F)cc(F)c4)=[N+]3[B-](F)(F)n3c2ccc3-n2cc(CC(C)C)nn2)cc1 [MKAC412-43]

- λmax Abs. (nm) [1]: 465 nm
- λmax Em. (nm) [1]: 574 nm
- φ (%) ([2]; MKAC compound library): 6.53%
Structure (SMILES): CCCC(C)c1cn(-c2ccc3n2[B-](F)(F)[N+]2=C(N(C)Cc4ccccc4)C=CC2=C3c2ccc(NC(C)=O)cc2)nn1 (racemic) [MKAC195-3]

- λmax Absorp. ([1]; MK library, Table 5): 480 nm
- λmax Emission ([1]; MK library, Table 5): 582 nm
- φ (quantum yield) ([2]; MK library, Table 5): 0.14%
Structure (SMILES): CC(C)Cc1cn(-c2ccc3n2[B-](F)(F)[N+]2=C(N4CCc5ccccc5C4)C=CC2=C3c2ccc(N)cc2)nn1 [MK66-43]

- λmax Absorp. ([1]; MK library, Table 5): 479 nm
- λmax Emission ([1]; MK library, Table 5): 587 nm
- φ (quantum yield) ([2]; MK library, Table 5): 0.12%
Structure (SMILES): Nc1ccc(C2=C3C=CC(N4CCc5ccccc5C4)=[N+]3[B-](F)(F)n3c2ccc3-n2cc(C3CC3)nn2)cc1 [MK66-4]

- λmax Absorp. (nm) [1]: 466 nm
- λmax Emission (nm) [1]: 569 nm
- φ (%) ([2]; MKCA compound library): 4.88%
Structure (SMILES): CCCc1cn(-c2ccc3n2[B-](F)(F)[N+]2=C(N4CC(C)OC(C)C4)C=CC2=C3c2ccc(NC(=O)CCl)cc2)nn1 (centres unmarked) [MKCA20-48]

- λmax Absorp. ([1]; BDC library, Table 2): 476 nm
- λmax Emission ([1]; BDC library, Table 2): 586 nm
- φ (quantum yield) ([2]; BDC library, Table 2): 0.13%
Structure (SMILES): CCCCCC(O)c1cn(-c2ccc3n2[B-](F)(F)[N+]2=C(N4CCCCC4)C=CC2=C3c2ccc(N)cc2)nn1 (centres unmarked) [BDC-69]

- λmax Absorp. ([1]; MK library, Table 5): 474 nm
- λmax Emission ([1]; MK library, Table 5): 563 nm
- φ (quantum yield) ([2]; MK library, Table 5): 0.179%
Structure (SMILES): Cc1ccccc1CNC1=[N+]2C(=C(c3ccc(N)cc3)c3ccc(-n4cc(CN(C)Cc5ccccc5)nn4)n3[B-]2(F)F)C=C1 [MK101-18]

- λmax Absorp. ([1]; BDCAC library, Table 3): 459 nm
- λmax Emission ([1]; BDCAC library, Table 3): 549 nm
- φ (quantum yield) ([2]; BDCAC library, Table 3): 3.5%
Structure (SMILES): CC(=O)Nc1ccc(C2=C3C=CC(N4CCCCC4)=[N+]3[B-](F)(F)n3c2ccc3-n2cc(-c3cc(C(F)(F)F)cc(C(F)(F)F)c3)nn2)cc1 [BDCAC-30]

- λmax Absorp. ([1]; BDCCA library, Table 4): 466 nm
- λmax Emission ([1]; BDCCA library, Table 4): 578 nm
- φ (quantum yield) ([2]; BDCCA library, Table 4): 1.0%
Structure (SMILES): O=C(CCl)Nc1ccc(C2=C3C=CC(N4CCCCC4)=[N+]3[B-](F)(F)n3c2ccc3-n2cc(CCc3ccccc3)nn2)cc1 [BDCCA-19]

- λmax Absorp. (nm) [1]: 465 nm
- λmax Emission (nm) [1]: 564 nm
Structure (SMILES): CCCC(C)c1cn(-c2ccc3n2[B-](F)(F)[N+]2=C(NCc4cc(OC)ccc4OC)C=CC2=C3c2ccc(NC(=O)CCl)cc2)nn1 (centres unmarked) [MKCA181-3]
